Laboratory results from ChEMBL document CHEMBL1129150, “Novel antifungal 2-aryl-1-(1H-1,2,4-triazol-1-yl)butan-2-ol derivatives with high activity against Aspergillus fumigatus” (1996).
Values after ≈ are worked out from the molar mass of the structure shown. Values joined by “and” are separate entries in the source; they are usually repeats but may differ in a detail not shown here. Equal values may be shown once.

Columns and labels:
Format in all cases: functional
Aspergillus fumigatus [1] = test: In vitro antifungal activity against Aspergillus fumigatus after 24 hr. incubation
Aspergillus fumigatus [2] = test: In vitro for the antifungal activity against Aspergillus fumigatus.
Mus musculus [3] = test: Number of mice cured after 10 days against Aspergillus fumigatus on intravenous infection to mice
Mus musculus [4] = test: Number of mice surviving due to reduction in kidney fungal burden after 10 days against Aspergillus fumigatus on intravenous infection to mice
Candida albicans [5] = test: In vitro antifungal activity against Candida albicans
Pichia kudriavzevii = test: In vitro antifungal activity against Candida krusei
Nakaseomyces glabratus = test: In vitro antifungal activity against Candida glabrata
Cryptococcus neoformans = test: In vitro antifungal activity against Cryptococcus neoformans
Candida albicans [6] = test: In vitro antifungal activity against Candida albicans after 24 hr. incubation
[7] = Aspergillus fumigatus, 24 h, read-out: MFC
[8] = Aspergillus fumigatus, read-out: MIC

SMILES | MFC (Aspergillus fumigatus [1]; [7]) | MIC (Aspergillus fumigatus [2]; [8]) | No. of cures (Mus musculus [3]) | No. of survivors (Mus musculus [4]) | other results
CC(c1ncnc(Cl)c1F)C(O)(Cn1cncn1)c1ccc(F)cc1F (stereo not given) | 3.1 µg/mL (≈ 8.08 µM) | 3.1 µg/mL (≈ 8.08 µM) |  |  | 
CC(c1ccncn1)C(O)(Cn1cncn1)c1ccc(F)cc1F (stereo not given) | 0.39 µg/mL (≈ 1.18 µM) | 0.39 µg/mL (≈ 1.18 µM) | 0 | 3 | 
C[C@@H](c1ccncc1)[C@](O)(Cn1cncn1)c1ccc(F)cc1F | 0.09 µg/mL (≈ 0.272 µM) | 0.05 µg/mL (≈ 0.151 µM) | 0 | 4 | 
CC(c1cccnc1)C(O)(Cn1cncn1)c1ccc(F)cc1F (stereo not given) |  | 0.39 µg/mL (≈ 1.18 µM) |  |  | 
OC(Cc1ccccn1)(Cn1cncn1)c1ccc(F)cc1F (stereo not given) |  | 25 µg/mL (≈ 79 µM) |  |  | 
CC(c1ccncc1F)C(O)(Cn1cncn1)c1ccc(F)cc1F (stereo not given) | 0.19 µg/mL (≈ 0.545 µM) | 0.098 µg/mL (≈ 0.281 µM) | 5 | 5 | 
CC(c1ncncc1F)C(O)(Cn1cncn1)c1ccc(F)cc1F (stereo not given) | 0.78 µg/mL (≈ 2.23 µM) | 0.39 µg/mL (≈ 1.12 µM) | 4 | 5 | 
CC(c1ncncc1Cl)C(O)(Cn1cncn1)c1ccc(F)cc1F (stereo not given) | 1.56 µg/mL (≈ 4.26 µM) | 0.39 µg/mL (≈ 1.07 µM) |  |  | 
CC(n1cncn1)C(O)(Cn1cncn1)c1ccc(F)cc1F (stereo not given) | 25 µg/mL (≈ 78.1 µM) | 12.5 µg/mL (≈ 39 µM) |  |  | 
OC(Cc1ccncc1)(Cn1cncn1)c1ccc(F)cc1F (stereo not given) |  | 3.1 µg/mL (≈ 9.8 µM) |  |  | 
CC(c1ncnc(Cl)c1Cl)C(O)(Cn1cncn1)c1ccc(F)cc1F (stereo not given) | 12.5 µg/mL (≈ 31.2 µM) | 3.1 µg/mL (≈ 7.75 µM) |  |  | 
CC(c1ccccn1)C(O)(Cn1cncn1)c1ccc(F)cc1F (stereo in doubt; 23a) |  |  |  |  | MFC (Aspergillus fumigatus [1]): 100 µg/mL (≈ 303 µM); MIC (Aspergillus fumigatus [2]): 12.5 µg/mL (≈ 37.8 µM)
CC(c1ccccn1)C(O)(Cn1cncn1)c1ccc(F)cc1F (stereo in doubt; 23b) |  |  |  |  | MFC (Aspergillus fumigatus [1]): 1.56 µg/mL (≈ 4.72 µM); MIC (Aspergillus fumigatus [2]): 0.39 µg/mL (≈ 1.18 µM)
OC(Cn1cncn1)(Cn1cncn1)c1ccc(F)cc1F [FLUCONAZOLE] | > 50 µg/mL | > 50 µg/mL |  |  | MIC (Candida albicans [5]): 1 µg/mL (≈ 3.27 µM); MIC (Pichia kudriavzevii): > 25 µg/mL; MIC (Nakaseomyces glabratus): 1.9 µg/mL (≈ 6.2 µM); MIC (Cryptococcus neoformans): 9.6 µg/mL (≈ 31.3 µM)
CCC(C)n1ncn(-c2ccc(N3CCN(c4ccc(OCC5COC(Cn6cncn6)(c6ccc(Cl)cc6Cl)O5)cc4)CC3)cc2)c1=O (stereo not given) [ITRACONAZOLE] |  |  | 3 | 4 | MIC (Candida albicans [5]): 0.12 µg/mL (≈ 0.17 µM); MIC (Aspergillus fumigatus [1]): 0.19 µg/mL (≈ 0.269 µM); MIC (Pichia kudriavzevii): 0.05 µg/mL (≈ 0.0709 µM); MIC (Nakaseomyces glabratus): 0.19 µg/mL (≈ 0.269 µM); MIC (Cryptococcus neoformans): 0.39 µg/mL (≈ 0.553 µM); MIC (Aspergillus fumigatus [2]): 0.14 µg/mL and 0.39 µg/mL
C[C@@H](c1ncncc1F)[C@](O)(Cn1cncn1)c1ccc(F)cc1F [VORICONAZOLE] |  | 0.09 µg/mL (≈ 0.258 µM) |  |  | MIC (Candida albicans [6]): 0.03 µg/mL (≈ 0.0859 µM); MIC (Pichia kudriavzevii): 0.24 µg/mL (≈ 0.687 µM); MIC (Nakaseomyces glabratus): 0.19 µg/mL (≈ 0.544 µM); MIC (Cryptococcus neoformans): 0.39 µg/mL (≈ 1.12 µM)
